From publication PMC10850954, “HDAC6/aggresome processing pathway importance for inflammasome formation is context-dependent” (The Journal of Biological Chemistry, 2024) come the findings set out here.

The subject of one test is NLRP3 inflammasome. Description: IL-1β release in PBMCs after NLRP3 inflammasome activation. It is filed as cell-based, human. The settings on record: for effect on IL-1β release (in words): all stimulatory conditions (MSU, nigericin, ATP), vs DMSO; for IL-1β reduction as compared to DMSO: compound 24 h, LPS 0.2 ng/ml 4 h. How it is done: Figure 3 Effect of […] mediated HDAC6 degradation on NLRP3 inflammasome activation in PBMCs.A, schematic of the mode of action of an HDAC6 degrader. The PROTAC engages both HDAC6 and the E3 ligase cereblon (CRBN), which then leads to ubiquitination and degradation of HDAC6. […] PBMCs (without or with LPS priming for 4 h) were treated with the indicated compounds and HDAC6 levels were detected by immunoblotting with an anti-HDAC6 antibody. Detection of actin was used as a control for loading. CGP, CGP084892 (Caspase-1 inhibitor); AFN700 is an inhibitor of the NF-kB pathway (IKK inhibitor). E, HDAC6 degradation impact on IL-1β release in PBMCs following MSU 200 μg/ml (5 h), nigericin 2 μM (2 h) or ATP 3 mM (0.5 h) treatment. Cells were first primed with 0.2 ng/ml LPS for 4 h at 37 °C, then treated with MSU, nigericin, and ATP as indicated.
Human IL-1β and IL-18 were determined with Cisbio HTRF Cisbio Human IL1β (#62HIL1BPET) and Human IL18 (#62HIL18PEG) protocols. All the data were from 3 or 4 independent biological replicates.
For BMDM cells, 1.5 × 10^6 cells per well were seeded in six-well plates. After priming with 1 μg/ml LPS (Invivogen #tlrl-b5lps), cells were challenged with 200 μg/ml MSU crystals (Invivogen #tlrl-msu-25) for 6 h or 20 μM nigericin (Sigma-Aldrich #N7143-5MG) for 30 min. […] The supernatant was removed, and fresh medium was added to have cells at a density of around 5 × 10^5 cells/ml. 100 μl cells were seeded in 96-well plate and incubated for 1∼2 days. During the culturing, dTAG was added when needed to degrade the DARPin. […] For PBMCs, 3 × 10^4 cells per were seeded, and primed with 0.2 ng/ml LPS for 4 h and then incubated with MSU 200 μg/ml (5 h), nigericin 2 μM (2 h) or ATP 3 mM (0.5 h). For pyrin inflammasome, U937-pyrin cells were seeded in 96 well after 0.5 μM PMA treatment for 3 h and then challenged by BAA473 (200 μM) for 4 h at 37 °C.

For another test, the system named is U937-pyrin cells. Description: Cell viability (resazurin) of U937-pyrin cells, pyroptosis. Particulars: BAA473 activation, resazurin assay. Format: cell-based, human. On the procedure:
Cell viability of PBMCs and U937 cells was checked with PrestoBlue HS Cell Viability Reagent (Invitrogen # P50200) according to the manufacturer’s instructions. After incubation for 1 to 2 h, fluorescence was determined with a PheraStar plate reader under Ex/Em = 540/590 nm.
Supplementary file mmc1.pdf: Supporting Figure S1 BMDM cells were primed by LPS (1 μg/ml) for 4 hrs and then challenged with 20 μM nigericin. 50 μl supernatant was collected every 15 min (up to 90 min) and mIL-1β level was determined by HTRF assay. […] Supporting Figure S2: A, immunoblot of HDAC1, HDAC2 and HDAC6 protein level in WT THP-1 cells vs DMSO or dTAG treated F10-FKBP^F36V THP-1 cells. DARPin F10 was detected by anti-HA antibody. B, FKBP^F36V THP-1 cells were established for evaluating the possible effect of dTAG on IL-1β release. Cells were first treated with PMA (0.5 μM) for 3 hr, then medium was changed and vehicle or dTAG was added (1 μM), followed by 20 μM nigericin for 3 hr. Supporting Figure S3: A, CTG cell viability assay to analyze degrader XY-07-035 toxicity in HEK293T, Jurkat and U937 cells. Cells were treated with different concentrations of the degrader, and cell viability determined by CTG assay was normalized to the non-treated group. […] Supporting Figure S4: Cell viability was measured by resazurin assay, and fluorescence intensity was a representative of the viability.

Entries after “also recorded” stand apart in the source; their conditions may differ.

In the case of `CN(C(=O)CCCNc1cccc2c1C(=O)N(C1CCC(=O)NC1=O)C2=O)c1ccc(NC(=O)CCCCCCC(=O)NO)cc1` (stereo not shown) [XY-07-35], the “effect on IL-1β release (in words)” value in the test with NLRP3 inflammasome was “clearly reduced”. The “IL-1β reduction as compared to DMSO” value was 40% in the test on NLRP3 inflammasome (ATP 3 mM 0.5 h), “ca. 60%” with NLRP3 inflammasome (MSU 200 μg/ml 5 h) and 40% in the test on NLRP3 inflammasome (nigericin 2 μM 2 h). Moreover, the “cell viability / protection from pyroptosis” value with U937-pyrin cells was “did not protect cells from pyroptosis; also recorded: No significant difference”.

On to `CN1C(=O)CCC(N2C(=O)c3cccc(NCCCC(=O)N(C)c4ccc(NC(=O)CCCCCCC(=O)NO)cc4)c3C2=O)C1=O` (stereo not shown) [XY-07-191], for which, in the test with NLRP3 inflammasome, the “effect on IL-1β release (in words)” value is recorded as “partial inhibition”. In the test on U937-pyrin cells, the “cell viability / protection from pyroptosis” value was “No significant difference”.
